Here are results for 20 compounds from US5801178A, “Aniline derivative having polyunsaturated fatty acid residue and use thereof” (Nippon Shoji Kaish Ltd., priority 1995, dated 1998).

Assay [1] deals with ACAT derived from rat liver. In words: Inhibitory activity against ACAT derived from rat liver microsome. It counts as biochemical. The note with it: pH 7.4, 37° C., 30 minutes. The method, then: Inhibitory activity against ACAT derived from rat liver microsome
(§1) Using, as an enzyme source, the microsomal fractions prepared from rat liver in the manner described below under Preparation of Microsome, the inhibitory activity against ACAT in the microsome fractions was determined as in the following. The compound of the present invention was dissolved in dimethyl sulfoxide and used as a sample solution. [1-^14 C] […] Ethanol (1 ml) was added to stop the reaction, and n-hexane (4.5 ml) was added. The reaction mixture was centrifuged at 2,000 rpm for 2 minutes and the upper n-hexane layer was separated and recovered, whereby cholesterol oleate (reaction product) was extracted. n-Hexane was evaporated with a nitrogen gas and the residue was re-dissolved dissolved in n-hexane (50 μl), which was used as a sample for thin-layer chromatography. […] After developing, the spot of cholesterol oleate was colored with iodine. The spot was cut out and dissolved in a xylene scintillator (Aquasol-2, Daiichi Pure Chemicals Co., Ltd.). The amount of cholesterol oleate was determined using a liquid scintillation counter.
The liver was removed from a fasted rat and thoroughly perfused with 0.25M sucrose solution. The liver was weighed, minced with scissors or razor and placed in a Teflon homogenizer. The liver was homogenized with 9 volumes [9 ml per g (wet weight) of liver] of 0.25M sucrose solution or 50 mM Tris-HCl buffer (pH 7.5) containing 0.25M sucrose and 5 mM MgCl2. The homogenate was centrifuged at 8,000-10,000 g for 10-15 minutes. The obtained supernatant was centrifuged at 105,000 g for 60-90 minutes. The sediment obtained from this centrifugation was suspended in 150 mM potassium phosphate buffer (pH 7.4) to give a microsomal fraction.
For orientation: Liver microsomes are a subcellular fraction often used to study metabolism.

Assay [2] concerns the target T1, ACAT derived from human macrophage (Homo sapiens, UniProt P35610).
T1 construct: Using, as an enzyme source, microsomal fractions prepared in the manner described below under Preparation of Microsome from U937 cells; endogenous in cells; host or cells: U937 cells differentiated with TPA, microsomal fraction
T1 sequence (P35610 1-550): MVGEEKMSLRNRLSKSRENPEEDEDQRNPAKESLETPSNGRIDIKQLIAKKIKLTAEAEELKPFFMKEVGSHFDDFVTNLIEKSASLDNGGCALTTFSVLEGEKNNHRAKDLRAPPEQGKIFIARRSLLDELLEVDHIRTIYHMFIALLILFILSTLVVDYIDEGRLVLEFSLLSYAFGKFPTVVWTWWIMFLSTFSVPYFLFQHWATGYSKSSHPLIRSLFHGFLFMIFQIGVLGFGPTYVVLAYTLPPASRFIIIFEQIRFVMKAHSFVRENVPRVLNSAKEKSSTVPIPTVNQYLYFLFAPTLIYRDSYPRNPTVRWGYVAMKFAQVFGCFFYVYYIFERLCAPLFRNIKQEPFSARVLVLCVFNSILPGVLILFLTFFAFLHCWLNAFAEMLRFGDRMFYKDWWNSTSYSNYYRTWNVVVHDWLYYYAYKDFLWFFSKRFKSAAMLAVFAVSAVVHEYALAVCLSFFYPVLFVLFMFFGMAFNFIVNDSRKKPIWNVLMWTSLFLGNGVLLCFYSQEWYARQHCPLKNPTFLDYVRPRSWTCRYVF
In words: Inhibitory activity against ACAT derived from human macrophage (microsomes of TPA-differentiated U937 cells). It is filed as biochemical. The note with it: for IC50: human macrophage (U937/TPA) microsome, pH 7.4, 37° C., 30 minutes; for selectivity (times greater, human macrophage ACAT vs rat liver ACAT): linoleoylamide derivatives; for Selectivity: Table 1, rat liver ACAT IC50 / human macrophage ACAT IC50. The method, then:
Inhibitory activity against ACAT derived from human macrophage
as §1, with “source,” for “source, the”, “prepared” for “prepared from rat liver”, “Microsome from U937 cells [human monocyte-derived cells known to differentiate into macrophages by the addition of TPA (12-O-tetradecanoylphorbol 13-acetate)] differentiated with TPA,” for “Microsome,”, “re-dissolved” for “re-dissolved dissolved”, “with” for “using”
The cells thus scraped and the culture solution were centrifuged at 3,000 rpm for 5 minutes, and the cell fractions obtained as precipitate were once freezed at -70° C. and preserved. The cells preserved at -70° C. were thawed and homogenized at 4° C. in a Teflon homogenizer. The homogenate was centrifuged at 12,000 g for 15 minutes. The precipitate fractions containing nuclea and mitochondria were removed and the obtained supernatant was further centrifuged at 100,000 g for 60 minutes. The supernatant was discarded, and the obtained precipitate fractions were suspended in 150 mM potassium phosphate buffer (pH 7.4) and used as a microsomal fraction.

On to `CCCCC/C=C\C/C=C\CCCCCCCC(=O)Nc1c(OC)cc(OC)cc1OC` [reference compound], for which, in assay [1], the IC50 (commonly the point on the concentration scale where inhibition reaches its midpoint) was 0.87 µM. Also, in assay [2], 0.67 µM corresponded to half-maximal inhibition (IC50) and the “selectivity (times greater, human macrophage ACAT vs rat liver ACAT)” value is listed as “scarce selectivity”.

For the compound `CCC=CCC=CCC=CCC=CCC=CCCCC(=O)NCCNC(=O)Nc1c(C(C)C)cccc1C(C)C` [Compound 13, N-(5,8,11,14,17-eicosapentaenoyl)-N'-(2,6-diisopropylanilinocarbonyl)ethylenediamine], the IC50 in assay [1] is more than 500 µM; in assay [2], 0.67 µM. The Selectivity in assay [2] is more than 746.

For `CCCCC/C=C\C/C=C\CCCCCCCC(=O)Nc1c(C(C)C)cccc1C(C)C` [reference compound], the results for the IC50 in assay [1] and in assay [2] were 0.09 µM and 0.006 µM, respectively. For the same compound, the “selectivity (times greater, human macrophage ACAT vs rat liver ACAT)” value in assay [2] is on record as “about fifteen times”.

`CCC=CCC=CCC=CCC=CCC=CCCCC(=O)NC1CCCCC1NC(=O)Nc1c(C(C)C)cccc1C(C)C` (stereo not drawn) [Compound 17, N-(5,8,11,14,17-eocosapentaenoyl)-N'-(2,6-diisopropylanilinocarbonyl)-1,2-diaminocyclohexane]: the IC50 was more than 500 µM in assay [1] and 1.86 µM in assay [2]. In assay [2], this compound had a Selectivity of more than 269.

For the compound `CCCCC/C=C\C/C=C\CCCCCCCC(=O)N1CCN(C(=O)Nc2c(C(C)C)cccc2C(C)C)CC1` [reference compound], the IC50 is not below 500 µM in assay [1] and 4.61 µM in assay [2]. For the same compound, the “ACAT inhibitory activity (in words)” value in assay [2] (human macrophage ACAT) is on record as “low activity”.

As for `CCC=CCC=CCC=CCC=CCC=CCC=CCCC(=O)NCCNC(=O)Nc1c(C(C)C)cccc1C(C)C` [Compound 14, N-(4,7,10,13,16,19-docosahexaenoyl)-N'-(2,6-diisopropylanilinocarbonyl)ethylenediamine], the IC50 in assay [1] was more than 500 µM. In assay [2], the Selectivity was more than 111 and the IC50 turned out to be 4.52 µM.

For `CCC=CCC=CCC=CCC=CCC=CCC=CCCC(=O)N1CCN(C(=O)Nc2c(C(C)C)cccc2C(C)C)CC1` [Compound 16, N-(4,7,10,13,16,19-docosahexaenoyl)-N'-(2,6-diisopropylanilinocarbonyl)piperazine], the IC50 in assay [1] is more than 500 µM. In assay [2], this compound gave a Selectivity of more than 725 and an IC50 of 0.69 µM.

As for `CCC=CCC=CCC=CCC=CCC=CCC=CCCC(=O)Nc1ccc(CNC(=O)Nc2c(C(C)C)cccc2C(C)C)cc1` [Compound 20, N-{4-(4,7,10,13,16,19-docosahexaenoylamino)phenylmethyl}-N'-(2,6-diisopropylphenyl)urea], the midpoint of inhibition in assay [1], the IC50, lay at 20.2 µM. Also, in assay [2], the Selectivity is 18.4 and half-maximal inhibition (IC50) required 1.1 µM.

For the compound `CCC=CCC=CCC=CCC=CCC=CCC=CCCC(=O)Nc1c(CC)cccc1CC` [Compound 10, N-(2,6-diethylphenyl)-4,7,10,13,16,19-docosahexaenamide], the IC50 came out at 11.5 µM in assay [1] and 0.029 µM in assay [2]. In addition, the Selectivity in assay [2] stood at 395.

In the case of `CCCCCC=CCC=CCCCCCCCC(=O)Nc1c(C)cccc1C` [reference compound], the midpoint of inhibition in assay [1], the IC50, lay at 0.14 µM. Moreover, in assay [2], the IC50 was 0.07 µM and the “selectivity (times greater, human macrophage ACAT vs rat liver ACAT)” value was “about twice”.

`CCCCC/C=C\C/C=C\CCCCCCCC(=O)Nc1c(CC)cccc1CC` [reference compound] gave an IC50 in assay [1] of 0.1 µM. In assay [2], the IC50 stood at 0.02 µM and the “selectivity (times greater, human macrophage ACAT vs rat liver ACAT)” value was “about five times”.

For the compound `CCC=CCC=CCC=CCC=CCC=CCCCC(=O)Nc1c(C)cccc1C` [Compound 7, N-(2,6-dimethylphenyl)-5,8,11,14,17-eicosapentaenamide], in assay [1], 4.25 µM corresponded to half-maximal inhibition (IC50). In addition, in assay [2], the Selectivity is given as 70.8 and the IC50 is 0.06 µM.

For the compound `CCC=CCC=CCC=CCC=CCC=CCCCC(=O)Nc1ccc(CNC(=O)Nc2c(C(C)C)cccc2C(C)C)cc1` [Compound 19, N-{4-(5,8,11,14,17-eicosapentaenoylamino)phenylmethyl}-N'-(2,6-diisopropylphenyl)urea], the IC50 in assay [1] is more than 500 µM. In assay [2], this compound returned a Selectivity of more than 3333 and an IC50 of 0.15 µM.

Take `CCC=CCC=CCC=CCC=CCC=CCCCC(=O)Nc1c(OC)cc(OC)cc1OC` [Compound 1, N-(2,4,6-trimethoxyphenyl)-5,8,11,14,17-eicosapentaenamide]: in assay [1], the IC50 amounted to 13.4 µM. In assay [2], this compound came in with a Selectivity of 49.6 and an IC50 of 0.27 µM.

Regarding `CCC=CCC=CCC=CCC=CCC=CCCCC(=O)N1CCN(C(=O)Nc2c(C(C)C)cccc2C(C)C)CC1` [Compound 15, N-(5,8,11,14,17-eicosapentaenoyl)-N'-(2,6-diisopropylanilinocarbonyl)piperazine], the IC50 in assay [1] was more than 500 µM; in assay [2], 1.08 µM. Also, the Selectivity in assay [2] is on record as more than 463.

In the case of `CCC=CCC=CCC=CCC=CCC=CCC=CCCC(=O)NC1CCCCC1NC(=O)Nc1c(C(C)C)cccc1C(C)C` (stereo not drawn) [Compound 18, N-(4,7,10,13,16,19-docosahexaenoyl)-N'-(2,6-diisopropylanilinocarbonyl)-1,2-diaminocyclohexane], the IC50 in assay [1] is more than 500 µM. For the same compound, in assay [2], the Selectivity is more than 190 and 2.63 µM corresponded to half-maximal inhibition (IC50).

`CCC=CCC=CCC=CCC=CCC=CCCCC(=O)Nc1c(CC)cccc1CC` [Compound 9, N-(2,6-diethylphenyl)-5,8,11,14,17-eicosapentaenamide]: the IC50 in assay [1] came out at 1.08 µM. In assay [2], this compound showed a Selectivity of 60 and an IC50 of 0.018 µM.

The compound `CCC=CCC=CCC=CCC=CCC=CCCCC(=O)NCc1ccc(NC(=O)Nc2c(C(C)C)cccc2C(C)C)cc1` [Compound 21, N-{4-(5,8,11,14,17-eicosapentaenoylaminomethyl)phenyl}-N'-(2,6-diisopropylphenyl)urea] gave an IC50 in assay [1] of more than 500 µM. In assay [2], this compound gave a Selectivity of more than 75.3 and an IC50 of 6.64 µM.

`CCC=CCC=CCC=CCC=CCC=CCC=CCCC(=O)Nc1c(OC)cc(OC)cc1OC` [Compound 2, N-(2,4,6-trimethoxyphenyl)-4,7,10,13,16,19-docosahexaenamide]: the IC50 in assay [1] came out at 20.3 µM. Besides, in assay [2], the Selectivity is given as 40.6 and the IC50 stood at 0.5 µM.

With `CCC=CCC=CCC=CCC=CCC=CCC=CCCC(=O)NCc1ccc(NC(=O)Nc2c(C(C)C)cccc2C(C)C)cc1` [Compound 22, N-{4-(4,7,10,13,16,19-docosahexaenoylaminomethyl)phenyl}-N'-(2,6-diisopropylphenyl)urea], the IC50 in assay [1] was more than 500 µM. In assay [2], this compound gave a Selectivity of more than 27.9 and an IC50 of 17.9 µM.
